Test results: patent publication US20030040531A1, “Remedies for reperfusion injury containing integrin alphanubeta 3 antagonist” (priority 2000, published 2003)
Read-outs that look alike come from different tables or passages of the source.

Experiments:
[1] = tested on: platelet aggregation; assay: inhibition of platelet aggregation, rat; format: cell-based; conditions: read-out: concentration (IC50) necessary for inhibition of platelet aggregation
[2] = tested on: U937 cells; assay: adhesion of human monocytes (U937 cells) to human activated vascular endothelial cells; format: cell-based; conditions: average on three wells±SD, control group 4522±1027
Experimental: The adhesion of human monocytes to vascular endothelial cells was measured with reference to the method of Murphy et al. (J. F. Murphy et al., Biochem. J. 304, 537 (1994)). Human funicular venoendothelial cells (4×10^4/well), which had been cultivated in a type-I collagen-coated flask containing a 199 medium containing an endothelial cell growth factor (15 μg/ml), heparin (5 U/ml), and 20% fetal calf serum, were cultivated using a type-I collagen-coated microplate in the above medium under 5% carbon dioxide at 37° C. for 2 days to prepare a layer of vascular endothelial cells. The layer of vascular endothelial cells was washed with PBS (−) and was then cultivated in PBS (−) containing 1 U/ml bovine thrombin, 5 mM CaCl2, and 5 mM MgCl2 for 5 min, followed -by washing with PBS(−) containing 10^-6 M D-phenylalanyl-L-prolyl-L-argininechloromethane and with PBS(−).
Next, U937 cells, which had been cultivated in an RPMI 1640 medium containing 10% fetal calf serum, were cultivated in the above medium containing 6 μM 2′,7′-bis(carboxyethyl)carboxyfluorescein tetraacetoxymethyl ester under 5% carbon dioxide at 37° C. for one hr, were washed with PBS (−), and were subjected to fluorescent labeling. The labeled U937 cells (2×10^5/well), the medicament, and 100 μl of an RPMI 1640 medium containing 1% fetal calf serum were added onto the layer of vascular endothelial cells, and an adhesion reaction was allowed to proceed under 5% carbon dioxide at 37° C. for 10 min. Next, nonadherent cells were removed, and 50 mM Tris HCl (pH 8.4) containing 0.1% sodium dodecylsulfate was added to elute the fluorescent dye, followed by fluorometry (excitation wavelength 485 nm, measurement wavelength 530 nm).

[3] = tested on: rat peritoneal cavity macrophage
Experimental: A Dulbecco's phosphate buffer (PBS (−)) solution of rat serum-derived vitronectin adjusted to a concentration of 5 μg/ml was first added to wells (50 μl/well) of a microplate (Maxisorp), and a reaction for immobilization was allowed to proceed at 4° C. overnight. After washing twice with 150 μl of PBS (−), PBS (−) containing 10 mg/ml of bovine serum albumin was added, followed by blocking at 37° C. for one hr. The microplate was then washed twice with 150 μl of PBS (−) to prepare an assay plate.
Rat peritoneal cavity macrophage was collected after the induction of thioglycolate into the peritoneal cavity. Specifically, a 3% thioglycolate medium was intraperitoneally administered into Wistar male rats (300 to 400 g) at a dose of 100 ml/kg, and, four days after the administration, intraperitoneal fluid and cold PBS (−) (100 ml/kg) injected into the peritoneal cavity were withdrawn to collect macrophage. The macrophage was isolated by removing nonadherent cells. Specifically, the cells collected from the peritoneal cavity were washed twice with PBS (−) and were then cultivated in a Dulbecco's modified Eagle's basal medium containing 0.1% bovine serum albumin under 5% carbon dioxide for 30 min to perform adhesion of macrophage. Next, nonadherent cells were removed, followed by washing with PBS (−). Thereafter, macrophage was collected with a cell scraper. The collected rat macrophage was washed twice with PBS (−) and was then suspended in a Dulbecco's modified Eagle's basal medium to a concentration of 8×10^5/ml. Next, 50 μl of a Dulbecco's modified Eagle's basal medium containing 0.2% bovine serum albumin with a medicament added thereto was added to the wells of the vitronectin-coated assay microplate, followed by pre-cultivation under 5% carbon dioxide at 37° C. for 10 min. Thereafter, 50 μl of the Dulbecco's modified Eagle's basal medium with macrophage suspended therein was added thereto, and the plate was thoroughly stirred. A reaction was allowed to proceed under 5% carbon dioxide at 37° C. for 10 min. […] The absorbance of the microplate thus obtained was measured at 595 nm.

[4] = tested on: human vascular smooth muscle cells; assay: adhesion of human vascular smooth muscle cells to immobilized human vitronectin; format: cell-based; conditions: read-out: concentration (IC50) necessary for inhibition of adhesion to vitronectin
Experimental: (§1) The adhesion of vascular smooth muscle cells to immobilized human vitronectin was measured in accordance with the method of Liaw et al. (L. Liaw et al., Circ. Res., 74, 214 (1994)). A Dulbecco's phosphate buffer (Dulbecco's PBS(−)) solution of human serum-derived vitronectin adjusted to a concentration of 4 μg/ml was first added to wells (50 μl/well) of a microplate (Maxisorp), and a reaction for immobilization was allowed to proceed at 4° C. overnight. After washing twice with 150 μl of Dulbecco's PBS (−), Dulbecco's PBS (−) containing 10 mg/ml of bovine serum albumin was added, followed by blocking at 37° C. for one hr. The microplate was then washed twice with 150 μl of Dulbecco's PBS (−) to prepare an assay plate.
Separately, human vascular smooth muscle cells cultivated at 37° C. under 5% carbon dioxide in a medium for vascular smooth muscle cells were separated using a Dulbecco's PBS (−) containing trypsin-EDTA, were washed with Dulbecco's PBS (−), and were then suspended in a Dulbecco's modified Eagle's basal medium to a concentration of 2×10^5/ml.
(§2) Next, 50 μl of a Dulbecco's modified Eagle's basal medium containing 20 mg/ml of bovine serum albumin with a medicament added thereto was added to the wells of the human vitronectin-coated assay microplate, followed by pre-cultivation under 5% carbon dioxide at 37° C. for 10 min. Thereafter, 50 μl of the Dulbecco's modified Eagle's basal medium with human vascular smooth muscle cells suspended therein was added thereto, and the plate was thoroughly stirred. A reaction was allowed to proceed under 5% carbon dioxide at 37° C. for 90 min. The reaction solution containing non-adherent cells was then removed, followed by washing three times with Dulbecco's PBS (−). For the adhered cells, 100 μl of Dulbecco's PBS (−) containing 4% paraformaldehyde was added, and immobilization was allowed to proceed at room temperature for 10 min. Next, 100 μl of a Dulbecco's PBS (−) containing 0.5% Toluidine Blue and 4% paraformaldehyde was added, and staining was allowed to proceed at room temperature for 5 min, followed by thorough washing with distilled water. The inside of the wells was then air-dried, and 1% aqueous sodium dodecylsulfate solution was then added to perform cytolysis. The absorbance of the microplate thus obtained was measured at 595 nm. […] The inhibition was calculated by the following equation. IC50 was determined from a primary regression line of the logarithm of each concentration of the test compound and the logarithm of (100−inhibition)/inhibition. [formula]

[5] = tested on: platelet aggregation; assay: inhibition of platelet aggregation, human; format: cell-based; conditions: read-out: concentration (IC50) necessary for inhibition of platelet aggregation
[6] = tested on: rat vascular smooth muscle cells; assay: adhesion of rat vascular smooth muscle cells to rat vitronectin; format: cell-based; conditions: read-out: concentration (IC50) necessary for inhibition of adhesion to vitronectin
Experimental: as §1, §2
(§3) Rat vascular smooth muscle cells were cultivated in a medium composed of a mixture of equal amounts of 15% fetal calf serum-containing 199 medium and RPMI 1640 medium. Separately, hamster and dog vascular smooth muscle cells were cultivated in a 10% fetal calf serum-containing Dulbecco's modified Eagle's basal medium. These cultivated cells were then suspended in a Dulbecco's modified Eagle's basal medium to concentrations of 3×10^5 cells/ml (rat), 3×10^5 cells/ml (hamster), and 4×10^5 cells /ml (dog), respectively. Rat vitronectin was used in the adhesion system of rats and hamsters, while bovine vitronectin was used in the adhesion system of dogs.

[7] = tested on: platelet aggregation; assay: inhibition of platelet aggregation, dog; format: cell-based; conditions: Canis lupus familiaris, read-out: concentration (IC50) necessary for inhibition of platelet aggregation
[8] = tested on: hamster vascular smooth muscle cells; assay: adhesion of hamster vascular smooth muscle cells to rat vitronectin; format: cell-based; conditions: Mesocricetus auratus, read-out: concentration (IC50) necessary for inhibition of adhesion to vitronectin
Experimental: as §1
Next, 50 μl of a Dulbecco's modified Eagle's basal medium containing 20 mg/ml of bovine serum albumin with a medicament added thereto was added to the wells of the human vitronectin-coated assay microplate, followed by pre-cultivation under 5% carbon dioxide at 37° C. for 10 min. […] The absorbance of the microplate thus obtained was measured at 595 nm. […] The inhibition was calculated by the following equation. IC50 was determined from a primary regression line of the logarithm of each concentration of the test compound and the logarithm of (100−inhibition)/inhibition. […]

[9] = target: integrin αvβ3 (Homo sapiens, UniProt P05106+P06756); assay: integrin αvβ3 binding assay (Pharmacological Example 1 in WO 99/38849)
From the text: Whether or not a compound has integrin αvβ3 antagonistic activity may be determined by assaying the antagonistic action by integrin αvβ3 binding assay as described, for example, in Pharmacological Test Example 1 in WO 99/38849.

[10] = tested on: dog vascular smooth muscle cells; assay: adhesion of dog vascular smooth muscle cells to bovine vitronectin; format: cell-based; conditions: Canis lupus familiaris, read-out: concentration (IC50) necessary for inhibition of adhesion to vitronectin
Experimental: as §1, §2, §3

Chain of integrin αvβ3 (P06756 31-1048): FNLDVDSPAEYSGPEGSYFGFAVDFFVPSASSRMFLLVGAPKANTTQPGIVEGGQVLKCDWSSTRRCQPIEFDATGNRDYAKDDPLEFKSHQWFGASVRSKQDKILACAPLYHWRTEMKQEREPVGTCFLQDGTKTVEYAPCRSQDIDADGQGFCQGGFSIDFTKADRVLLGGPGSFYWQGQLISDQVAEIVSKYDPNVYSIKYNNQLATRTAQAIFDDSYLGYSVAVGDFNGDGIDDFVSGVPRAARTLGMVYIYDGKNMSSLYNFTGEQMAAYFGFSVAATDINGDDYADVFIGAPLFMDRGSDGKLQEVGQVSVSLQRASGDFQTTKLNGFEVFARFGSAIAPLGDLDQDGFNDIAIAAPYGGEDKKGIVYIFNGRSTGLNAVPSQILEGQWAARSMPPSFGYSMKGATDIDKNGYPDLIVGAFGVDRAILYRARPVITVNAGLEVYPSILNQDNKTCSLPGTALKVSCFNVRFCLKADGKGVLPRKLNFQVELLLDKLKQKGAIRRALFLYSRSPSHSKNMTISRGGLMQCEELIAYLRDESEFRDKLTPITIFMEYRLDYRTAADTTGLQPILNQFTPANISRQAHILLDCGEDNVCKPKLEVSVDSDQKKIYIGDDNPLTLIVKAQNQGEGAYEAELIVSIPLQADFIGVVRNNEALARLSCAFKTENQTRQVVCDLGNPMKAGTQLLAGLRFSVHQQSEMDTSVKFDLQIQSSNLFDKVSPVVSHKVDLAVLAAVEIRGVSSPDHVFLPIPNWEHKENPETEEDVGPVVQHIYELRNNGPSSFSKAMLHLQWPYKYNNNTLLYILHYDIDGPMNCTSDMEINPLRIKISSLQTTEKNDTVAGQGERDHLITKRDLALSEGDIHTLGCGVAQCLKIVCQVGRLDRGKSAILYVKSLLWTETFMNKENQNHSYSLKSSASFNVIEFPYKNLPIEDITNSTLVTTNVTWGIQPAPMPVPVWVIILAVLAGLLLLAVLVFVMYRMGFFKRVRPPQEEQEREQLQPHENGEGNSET
Chain of integrin αvβ3 (P05106 27-788): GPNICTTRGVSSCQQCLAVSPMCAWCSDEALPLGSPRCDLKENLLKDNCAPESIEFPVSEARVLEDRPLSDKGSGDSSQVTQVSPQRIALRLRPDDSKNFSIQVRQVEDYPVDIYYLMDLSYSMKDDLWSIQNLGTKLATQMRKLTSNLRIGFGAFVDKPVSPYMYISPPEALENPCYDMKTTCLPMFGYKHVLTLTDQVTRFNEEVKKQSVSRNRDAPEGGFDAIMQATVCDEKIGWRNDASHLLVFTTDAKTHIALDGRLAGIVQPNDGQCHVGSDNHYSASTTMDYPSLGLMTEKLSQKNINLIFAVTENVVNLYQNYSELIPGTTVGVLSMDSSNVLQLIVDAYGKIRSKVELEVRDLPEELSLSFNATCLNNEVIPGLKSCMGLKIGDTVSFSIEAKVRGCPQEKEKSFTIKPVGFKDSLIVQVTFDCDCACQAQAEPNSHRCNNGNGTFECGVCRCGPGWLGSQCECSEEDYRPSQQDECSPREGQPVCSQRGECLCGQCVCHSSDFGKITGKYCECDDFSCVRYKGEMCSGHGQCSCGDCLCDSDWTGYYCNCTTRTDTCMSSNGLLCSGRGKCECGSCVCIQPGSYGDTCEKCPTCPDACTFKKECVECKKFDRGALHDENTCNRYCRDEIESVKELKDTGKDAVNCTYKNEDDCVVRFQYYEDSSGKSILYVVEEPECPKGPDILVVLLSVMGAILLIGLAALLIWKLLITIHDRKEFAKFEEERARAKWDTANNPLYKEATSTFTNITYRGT

O=C(NCC(NS(=O)(=O)c1ccccc1)C(=O)O)c1ccc(N2CCC(NC3=NCCCN3)CC2)c(F)c1 (stereo in doubt) [formula (IV), (2S)-Benzenesulfonylamino-3-[3-fluoro-4-{4-(1,4,5,6-tetrahydropyrimidin-2-ylamino)-piperidin-1-yl}benzoylamino]propionic Acid]
IC50 [1]: > 100 µM | fluorescence intensity (adhered U937 cells) ([2]; 10^-6 M): 3710+969 arbitrary unit | fluorescence intensity (adhered U937 cells) ([2]; 10^-7 M): 4389+640 arbitrary unit | fluorescence intensity (adhered U937 cells) ([2]; 10^−4 M): -34+74 arbitrary unit | fluorescence intensity (adhered U937 cells) ([2]; 10^−5 M): 1968±187 arbitrary unit | fluorescence intensity (adhered rat macrophage) ([3]; 0.1 µM): 0.086±0.069 arbitrary unit | fluorescence intensity (adhered rat macrophage) ([3]; 1 µM): 0.031 +0.037 arbitrary unit | fluorescence intensity (adhered rat macrophage) ([3]; 10 µM): 0.012 +0.038 arbitrary unit | IC50 [4]: 0.037 µM | IC50 [5]: 0.055 µM | IC50 [6]: 0.23 µM | IC50 [7]: 0.045 µM | IC50 [8]: 0.73 µM | IC50 [9]: 0.0002 µM | IC50 [10]: 0.026 µM
